Counter-ions that a name gives are not always drawn.
What was measured:
[1] = target: T1, human 5-hydroxytryptamine-2C (h5-HT2C) receptor (Homo sapiens, UniProt P28335); assay: [125I]DOI binding to membranes of CHO cells expressing h5-HT2C receptor; details: read-out: 5-HT2C Binding Ki avg
T1 construct: expressed in transfected cells; host or cells: CHO (Chinese Hamster Ovary) cells; membrane preparation
T1 sequence (P28335 33-458): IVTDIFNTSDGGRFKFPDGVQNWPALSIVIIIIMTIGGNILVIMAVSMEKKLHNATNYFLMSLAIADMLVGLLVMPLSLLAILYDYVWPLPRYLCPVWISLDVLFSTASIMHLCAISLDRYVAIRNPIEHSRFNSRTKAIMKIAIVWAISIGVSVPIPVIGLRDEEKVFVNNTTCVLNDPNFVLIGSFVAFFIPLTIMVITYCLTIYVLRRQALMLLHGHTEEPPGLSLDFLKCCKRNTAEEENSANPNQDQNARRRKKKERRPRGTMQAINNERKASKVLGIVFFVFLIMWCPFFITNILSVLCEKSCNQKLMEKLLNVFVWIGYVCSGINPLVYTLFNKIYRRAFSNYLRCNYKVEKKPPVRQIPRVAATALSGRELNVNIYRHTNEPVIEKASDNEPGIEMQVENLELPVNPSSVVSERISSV

[2] = obesity model, reduction of food intake in Zucker rats; type: in vivo
Experimental: (§1) To evaluate acute in vivo efficacy of various compounds, 7 weeks-old male C57BL/6J mice are obtained from The Jackson Laboratory (Bar Harbor, Me.) and 6 weeks-old lean Zucker fa/? rats are purchased from Charles River Laboratories (Wilmington, Mass.). Mice and rats are single housed in a temperature-controlled (25° C.) facility with a 12-h light/dark cycle. Animals are allowed normal chow diet (Rodent chow #5001, PharmaServ, Framingham, Mass.) and water ad libitum. After one week acclimation, animals are randomized to vehicle (saline) or treatment groups. Animals are fasted overnight (16 hrs) and orally dosed with vehicle or compounds. Thirty minutes after compound administration, animals are given a weighed amount of food, and food intake was recorded 30 minutes, 1 h, 2 h, 4 h, 7 h and 24 h after refeeding.
(§2) To assess in vivo efficacy of various 5-HT2C compounds on weight loss, 5 weeks-old male C57BL/6J-DIO mice were fed a high-fat high-sucrose diet (58 kcal % fat, 16.4 kcal % protein, 25.5 kcal % carbohydrate) for 11 weeks. 6 weeks-old male Zucker fa/fa rats purchased from Charles River Laboratories were also used. Mice and rats were single housed in a temperature-controlled (25° C.) facility with a 12-h light/dark cycle. Animals were allowed food and water ad libitum. After one week acclimation, animals were randomized to vehicle (saline) or treatment groups. Animals were orally dosed once daily for 14 days. Body weight, food consumption, and/or body composition (NMR) were recorded. Epidydimal adipose tissue was collected at the end of the study.

[3] = target: T2, human 5-HT2C receptor (Homo sapiens, UniProt P28335); assay: calcium mobilization (FLIPR) in CHO cells stably expressing the human 5-HT2C receptor; type: cell-based; details: for Emax: CHO, read-out: 5-HT2C Function EMax (%); for EC50: calcium mobilization, read-out: 5-HT2C Function EC50
T2 sequence (P28335 33-458): T1 sequence (P28335 33-458)

[4] = obesity model, reduction of food intake in C57BL/6J-DIO mice; type: in vivo
Experimental: as §1, §2

Row | SMILES | melting point | Ki [1] | Emax [3] | EC50 [3] | further results
1 | NC[C@H]1CCc2ccc(F)c(-c3ccccc3Cl)c2O1 (as salt: hydrochloride) [Compound 71, ((2R)-8-(2-chlorophenyl)-7-fluorochroman-2-yl)methanamine hydrochloride] | 223 to 225 °C |  |  |  | 
2 | NC[C@H]1C=Cc2cc(F)cc(-c3cc(Cl)ccc3Cl)c2O1 (as salt: hydrochloride) [Compound 63, {[(2R)-8-(2,5-dichlorophenyl)-6-fluoro-2H-chromen-2-yl]methyl}amine hydrochloride] | 217 to 219 °C |  |  |  | 
3 | NC[C@H]1CCc2cc(F)cc(-c3c(Cl)cccc3Cl)c2O1 (as salt: hydrochloride) [Compound 57, {[(2R)-8-(2,6-dichlorophenyl)-6-fluoro-3,4-dihydro-2H-chromen-2-yl]methyl}amine hydrochloride] | 190 to 192 °C |  |  |  | 
4 | NC[C@H]1CCc2cccc(-c3c(Cl)cccc3Cl)c2O1 [Compound 36, {[(2R)-8-(2,6-dichlorophenyl)-3,4-dihydro-2H-chromen-2-yl]methyl}amine hydrochloride] |  | ≤ 10 nM | 80% | < 50 nM | % Reduction food intake (vs vehicle) ([2]; 30 mpk oral, 0.5 hour): 0 ± 16%; % Reduction food intake (vs vehicle) ([2]; 30 mpk oral, 2 hours): 0 ± 8%; % Reduction food intake (vs vehicle) ([2]; 30 mpk oral, 4 hours): 0 ± 9%; % Reduction food intake (vs vehicle) ([2]; 50 mpk oral, 0.5 hour): 58 ± 9%; % Reduction food intake (vs vehicle) ([2]; 50 mpk oral, 2 hours): 11 ± 17%; % Reduction food intake (vs vehicle) ([2]; 50 mpk oral, 4 hours): 0 ± 13%; % Reduction food intake (vs vehicle) ([4]; 30 mpk oral, 0.5 hour): 86 ± 11%; % Reduction food intake (vs vehicle) ([4]; 30 mpk oral, 2 hours): 72 ± 7%; % Reduction food intake (vs vehicle) ([4]; 30 mpk oral, 4 hours): 65 ± 8%; % Reduction food intake (vs vehicle) ([4]; 50 mpk oral, 0.5 hour): 83 ± 6%; % Reduction food intake (vs vehicle) ([4]; 50 mpk oral, 2 hours): 77 ± 6%; % Reduction food intake (vs vehicle) ([4]; 50 mpk oral, 4 hours): 67 ± 9%
5 | NC[C@H]1C=Cc2cc(F)cc(-c3c(Cl)cccc3Cl)c2O1 (as salt: hydrochloride) [Compound 66, {[(2R)-8-(2,6-dichlorophenyl)-6-fluoro-2H-chromen-2-yl]methyl}amine hydrochloride] | 153 to 155 °C |  |  |  | 
6 | NC[C@H]1CCc2ccc(F)c(-c3ccc(Cl)cc3Cl)c2O1 (as salt: hydrochloride) | 164 to 166 °C |  |  |  | 
7 | Cc1ccccc1-c1c(Cl)ccc2c1O[C@@H](CN)CC2 (as salt: hydrochloride) [Compound 69, ((2R)-7-Chloro-8-o-tolylchroman-2-yl)methanamine hydrochloride] | 155 °C |  |  |  | 
8 | Cc1cc(Cl)ccc1-c1c(F)ccc2c1O[C@@H](CN)CC2 (as salt: hydrochloride) [Compound 72, ((2R)-8-(4-Chloro-2-methylphenyl)-7-fluorochroman-2-yl)methanamine hydrochloride] | 100 to 102 °C |  |  |  | 
9 | NC[C@H]1CCc2ccc(Cl)c(-c3ccccc3Cl)c2O1 (as salt: hydrochloride) | 220 to 222 °C |  |  |  | 
10 | NC[C@H]1CCc2cccc(-c3c(Cl)cccc3Cl)c2O1 (as salt: hydrochloride) [Compound 36, {[(2R)-8-(2,6-dichlorophenyl)-3,4-dihydro-2H-chromen-2-yl]methyl}amine hydrochloride] | 188 to 190 °C |  |  |  | 
11 | NC[C@H]1CCc2cc(F)cc(-c3ccccc3-c3ccccc3)c2O1 (as salt: hydrochloride) | 98 °C |  |  |  | 
12 | NC[C@H]1C=Cc2cc(F)cc(-c3ccccc3Cl)c2O1 (as salt: hydrochloride) [Compound 64, {[(2R)-8-(2-chlorophenyl)-6-fluoro-2H-chromen-2-yl]methyl}amine hydrochloride] | 145 to 147 °C |  |  |  | 
13 | COc1ccccc1-c1cc(F)cc2c1O[C@@H](CN)CC2 (as salt: hydrochloride) [Compound 38, 1-[(2R)-6-fluoro-8-(2-methoxyphenyl)-3,4-dihydro-2H-chromen-2-yl]methanamine hydrochloride] | 100 °C (dec.) |  |  |  | 
14 | CCNC[C@H]1CCc2cc(F)cc(-c3c(Cl)cccc3Cl)c2O1 (as salt: hydrochloride) [Compound 58, N-{[(2R)-8-(2,6-dichlorophenyl)-6-fluoro-3,4-dihydro-2H-chromen-2-yl]methyl}ethanamine hydrochloride] | > 225 °C |  |  |  | 
15 | COc1ccccc1-c1cc(F)cc2c1O[C@@H](CN)CC2 [Compound 38, 1-[(2R)-6-fluoro-8-(2-methoxyphenyl)-3,4-dihydro-2H-chromen-2-yl]methanamine hydrochloride] |  | ≤ 10 nM | 80% | < 50 nM | 
16 | CNC[C@H]1CCc2cccc(-c3ccccc3)c2O1 [Compound 5, N-methyl-N-{[(2R)-8-phenyl-3,4-dihydro-2H-chromen-2-yl]methyl}amine hydrochloride] |  | ≤ 10 nM | 90% | 50 to 200 nM | 
17 | NC[C@H]1CCc2cc(F)cc(-c3ccccc3Cl)c2O1 [Compound 45, {[(2R)-8-(2-chlorophenyl)-6-fluoro-3,4-dihydro-2H-chromen-2-yl]methyl}amine hydrochloride] |  | ≤ 10 nM | 90% | < 50 nM | 
18 | CNC[C@H]1CCc2cccc(-c3ccccc3Cl)c2O1 [Compound 10, N-{[(2R)-8-(2-chlorophenyl)-3,4-dihydro-2H-chromen-2-yl]methyl}-N-methylamine hydrochloride] |  | ≤ 10 nM | 100% | < 50 nM | 
19 | CNC[C@H]1CCc2cccc(-c3cc(Cl)ccc3Cl)c2O1 [Compound 3, {[(2R)-8-(2,5-dichlorophenyl)-3,4-dihydro-2H-chromen-2-yl]methyl}methylamine hydrochloride] |  | ≤ 10 nM | 90% | < 50 nM | 
20 | COc1ccccc1-c1cc(F)cc2c1O[C@@H](CN)C=C2 (as salt: hydrochloride) [Compound 65, {[(2R)-6-fluoro-8-(2-methoxyphenyl)-2H-chromen-2-yl]methyl}amine hydrochloride] | 198 to 200 °C |  |  |  | 
21 | COc1ccc(-c2cccc3c2O[C@@H](CN)CC3)c(OC)c1 [Compound 16, {[(2R)-8-(2,4-dimethoxyphenyl)-3,4-dihydro-2H-chromen-2-yl]methyl}amine hydrochloride] |  | ≤ 10 nM | 100% | < 50 nM | 
22 | COc1ccccc1-c1cccc2c1O[C@@H](CN)CC2 [Compound 15, {[(2R)-8-(2-methoxyphenyl)-3,4-dihydro-2H-chromen-2-yl]methyl}amine hydrochloride] |  | ≤ 10 nM | 90% | < 50 nM | 
23 | CCNC[C@H]1CCc2cc(F)cc(-c3c(Cl)cccc3Cl)c2O1 [Compound 58, N-{[(2R)-8-(2,6-dichlorophenyl)-6-fluoro-3,4-dihydro-2H-chromen-2-yl]methyl}ethanamine hydrochloride] |  | ≤ 10 nM | 60% | < 50 nM | 
24 | NC[C@H]1CCc2cccc(-c3ccc(Cl)cc3Cl)c2O1 [Compound 13, {[(2R)-8-(2,4-dichlorophenyl)-3,4-dihydro-2H-chromen-2-yl]methyl}amine hydrochloride] |  | ≤ 10 nM | 100% | < 50 nM | 
25 | NCC1C=Cc2cc(F)cc(-c3ccccc3Cl)c2O1 (centres unmarked) [Compound 62, {[8-(2-chlorophenyl)-6-fluoro-2H-chromen-2-yl]methyl}amine hydrochloride] |  | 10 to 50 nM | 100% | < 50 nM | 

— patent US7365095B2, “Chromane and chromene derivatives and uses thereof” (Wyeth, priority 2005, dated 2008)
